Test results: article PMC4016240, “Flavonoids with α-glucosidase inhibitory activities and their contents in the leaves of Morus atropurpurea” (Chinese Medicine, 2013)

Target: T1, yeast α-glucosidase (Saccharomyces cerevisiae, UniProt P53341)
T1 construct: purchased Sigma-Aldrich
Test: microplate-based α-glucosidase inhibition assay (pNPG substrate)
Assay type: biochemical, Saccharomyces cerevisias
Conditions: pH 6.8, 37°C, 30 min, means ± SD, n = 3
Excerpt: Acetonitrile (HPLC grade) and acetic acid (HPLC grade) were purchased from Merck (Darmstadt, Germany), and methanol (AR grade) was purchased from Kaitong (Tianjin, China). Sodium carbonate was purchased from BDH Laboratory Supplies (Poole, Dorset, UK). α-Glucosidase type 1 ([…] from Saccharomyces cerevisias) and 4-nitrophenyl α-D-glucopyranoside (pNPG) were purchased from Sigma-Aldrich (St. Louis, MO, USA). Ultra-pure water was purified using a Millipore Milli Q-Plus system (Billerica, MA, USA). […] Silica gel (200–300 mesh) was purchased from Qingdao Haiyang Chemical Co. Ltd. (Qingdao, China). Macroporous absorption resin (D101) was purchased from Haiguang Chemical Industrial Co. (Tianjin, China). Sephadex LH-20 was purchased from GE Healthcare Bio-Sciences AB (Uppsala, Sweden), and the Millex® nylon membrane syringe filter was purchased from Millipore (Billerica, MA, USA).
The yeast α-glucosidase inhibitory activities of the four flavonoids were determined by a microplate-based method with a slight modification. […] The 4-nitrophenol absorption was measured at 405 nm. […] The inhibitory activity was calculated using the following formula: […]
where AS, ASB, AC, and ACB are the absorbances of sample, sample blank, control, and control blank, respectively.

T1 sequence (P53341 whole entry): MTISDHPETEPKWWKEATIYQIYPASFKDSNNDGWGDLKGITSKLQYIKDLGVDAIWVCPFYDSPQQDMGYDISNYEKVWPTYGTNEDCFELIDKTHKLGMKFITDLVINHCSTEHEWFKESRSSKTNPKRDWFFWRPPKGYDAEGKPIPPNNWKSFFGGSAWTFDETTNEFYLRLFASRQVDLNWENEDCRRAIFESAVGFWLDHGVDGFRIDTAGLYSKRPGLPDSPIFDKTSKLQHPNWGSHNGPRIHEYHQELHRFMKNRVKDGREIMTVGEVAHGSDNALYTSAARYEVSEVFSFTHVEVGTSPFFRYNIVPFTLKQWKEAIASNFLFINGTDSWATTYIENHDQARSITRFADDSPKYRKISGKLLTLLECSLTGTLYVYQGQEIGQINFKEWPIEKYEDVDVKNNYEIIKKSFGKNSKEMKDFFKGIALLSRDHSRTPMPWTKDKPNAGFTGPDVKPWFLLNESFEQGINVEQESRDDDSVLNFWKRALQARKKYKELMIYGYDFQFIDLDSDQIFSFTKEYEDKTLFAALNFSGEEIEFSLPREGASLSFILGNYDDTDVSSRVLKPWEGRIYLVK

Row | Compound | IC50 [µM]
1 | C[C@@H]1O[C@@H](OC[C@H]2O[C@@H](Oc3c(-c4ccc(O)c(O)c4)oc4cc(O)cc(O)c4c3=O)[C@H](O)[C@@H](O)[C@@H]2O)[C@H](O)[C@H](O)[C@H]1O [flavonoid 1, rutin] | 13.2
2 | O=c1c(O[C@@H]2O[C@H](CO)[C@@H](O)[C@H](O)[C@H]2O)c(-c2ccc(O)c(O)c2)oc2cc(O)cc(O)c12 [flavonoid 2, isoquercetin] | 117
